According to patent publication US20020137929A1, “1 - (3-heterocyclylphenyl) isothiourea, -isourea, -guanidine and -amidine herbicidal agents” (Intellectual Property Department, BASF Aktiengesellschaft, priority 1998, published 2002):

How the values were obtained:
MOOVA (Monochoria) = experiment: Postemergence weed control under flooded paddy conditions; type: in vivo, Monochoria vaginalis; settings: postemergence weeds, rated 3 to 4 weeks after treatment
In short: (§1)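 Weeds 3 to 5 cm tall and rice seedlings at the 1.5 to 2.5 leaf stage were flooded, with water held 1.5 to 3 cm above the soil. Compounds in 50/50 v/v aqueous/acetone went into the flood water at about 0.0313 to 0.500 kg/ha. Visual 0-9 ratings versus control were made 3 to 4 weeks later.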

[1] = tested on: SAGPY (Arrowhead (Pygmaea)); experiment: as above; type: in vivo, Sagittaria pygmaea; settings: postemergence weeds, rated 3 to 4 weeks after treatment
In short: as §1

AMBEL (Ragweed, Common) = experiment: Preemergence herbicidal evaluation; type: in vivo, Ambrosia artemisifolia; settings: preemergence, rated 4-5 weeks after treatment, 0-9 scale
In short: (§2)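 In this greenhouse assay, monocot and dicot seeds are planted in soil and treated prior to emergence with an aqueous acetone spray (about 0.0156-0.500 kg/ha). Plants are assessed visually against control on a 0-9 scale after 4-5 weeks.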

ZEAMX (Corn, Field) = experiment: Postemergence herbicidal evaluation; type: in vivo, Zea mays; settings: postemergence
In short: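 Seedlings grown about two weeks were sprayed at 40 psi with compound dispersed in 50/50 acetone/water plus 0.5% TWEEN 20, at about 0.0156 to 0.500 kg/ha. Plants were kept in the greenhouse and scored 4–5 weeks later on a 0–9 visual scale against untreated controls.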

ABUTH (Velvetleaf) = experiment: Preemergence herbicidal evaluation; type: in vivo, Abutilon theophrasti; settings: preemergence, rated 4-5 weeks after treatment, 0-9 scale
In short: as §2

[2] = tested on: GLXMAW (Soybean, Williams); experiment: Preemergence herbicidal evaluation; type: in vivo, Glycine max, (L.) Merr. cv Williams; settings: preemergence, rated 4-5 weeks after treatment, 0-9 scale
In short: as §2

SMILES: CCOC(=O)CN1C(=O)C(CC(=O)NOC)SC1=Nc1cc(-n2c(=O)cc(C(F)(F)F)n(C)c2=O)c(F)cc1Cl (stereo not drawn) [Compound 83, Ethyl 2-{{2-chloro-5-[3,6-dihydro-3-methyl-2,6-dioxo-4-(trifluoromethyl)-1(2H)-pyrimidinyl]-4-fluorophenyl}imino}-5-[(methoxycarbamoyl)methyl]-4-oxo-3-thiazolidineacetate]
- Herbicidal rating MOOVA (MOOVA (Monochoria); Rate 0.0313 kg/ha): 9.0
- Herbicidal rating MOOVA (MOOVA (Monochoria); Rate 0.0625 kg/ha): 9.0
- Herbicidal rating MOOVA (MOOVA (Monochoria); Rate 0.1250 kg/ha): 9.0
- Herbicidal rating MOOVA (MOOVA (Monochoria); Rate 0.2500 kg/ha): 9.0
- Herbicidal rating SAGPY ([1]; Rate 0.0313 kg/ha): 7.0
- Herbicidal rating SAGPY ([1]; Rate 0.0625 kg/ha): 7.0
- Herbicidal rating SAGPY ([1]; Rate 0.1250 kg/ha): 7.0
- Herbicidal rating SAGPY ([1]; Rate 0.2500 kg/ha): 9.0
- AMBEL rating (AMBEL (Ragweed, Common); 0.0156 kg/ha): 0.0
- AMBEL rating (AMBEL (Ragweed, Common); 0.0313 kg/ha): 0.0
- AMBEL rating (AMBEL (Ragweed, Common); 0.0625 kg/ha): 0.0
- AMBEL rating (AMBEL (Ragweed, Common); 0.1250 kg/ha): 9.0
- AMBEL rating (AMBEL (Ragweed, Common); 0.2500 kg/ha): 9.0
- AMBEL rating (AMBEL (Ragweed, Common); 0.5000 kg/ha): 9.0
- ZEAMX herbicidal rating (ZEAMX (Corn, Field); rate 0.0156 kg/ha): 4.5
- ZEAMX herbicidal rating (ZEAMX (Corn, Field); rate 0.0313 kg/ha): 7.5
- ZEAMX herbicidal rating (ZEAMX (Corn, Field); rate 0.0625 kg/ha): 7.5
- ZEAMX herbicidal rating (ZEAMX (Corn, Field); rate 0.1250 kg/ha): 7.5
- ABUTH rating (ABUTH (Velvetleaf); 0.0156 kg/ha): 4.0
- ABUTH rating (ABUTH (Velvetleaf); 0.0313 kg/ha): 6.0
- ABUTH rating (ABUTH (Velvetleaf); 0.0625 kg/ha): 9.0
- ABUTH rating (ABUTH (Velvetleaf); 0.1250 kg/ha): 9.0
- ABUTH rating (ABUTH (Velvetleaf); 0.2500 kg/ha): 9.0
- ABUTH rating (ABUTH (Velvetleaf); 0.5000 kg/ha): 9.0
- GLXMAW rating ([2]; 0.0156 kg/ha): 0.0
- GLXMAW rating ([2]; 0.0313 kg/ha): 0.0
- GLXMAW rating ([2]; 0.0625 kg/ha): 0.0
- GLXMAW rating ([2]; 0.1250 kg/ha): 0.0
- GLXMAW rating ([2]; 0.2500 kg/ha): 5.0
- GLXMAW rating ([2]; 0.5000 kg/ha): 7.0

SMILES: C=CCN1C(=O)C(CC(=O)NC)SC1=Nc1cc(-n2c(=O)cc(C(F)(F)F)n(C)c2=O)c(F)cc1Cl (stereo not drawn) [Compound 84, 3-Allyl-2-{{2-chloro-5-[3,6-dihydro-3-methyl-2,6-dioxo-4-(trifluoromethyl)-1(2H)-pyrimidinyl]-4-fluorophenyl}imino}-N-methyl-4-oxo-5-thiazolidineacetamide]
- Herbicidal rating MOOVA (MOOVA (Monochoria); Rate 0.0313 kg/ha): 9.0
- Herbicidal rating MOOVA (MOOVA (Monochoria); Rate 0.0625 kg/ha): 9.0
- Herbicidal rating MOOVA (MOOVA (Monochoria); Rate 0.1250 kg/ha): 9.0
- Herbicidal rating MOOVA (MOOVA (Monochoria); Rate 0.2500 kg/ha): 9.0
- Herbicidal rating SAGPY ([1]; Rate 0.0313 kg/ha): 2.0
- Herbicidal rating SAGPY ([1]; Rate 0.0625 kg/ha): 6.0
- Herbicidal rating SAGPY ([1]; Rate 0.1250 kg/ha): 7.0
- Herbicidal rating SAGPY ([1]; Rate 0.2500 kg/ha): 9.0
- AMBEL rating (AMBEL (Ragweed, Common); 0.0156 kg/ha): 0.0
- AMBEL rating (AMBEL (Ragweed, Common); 0.0313 kg/ha): 3.0
- AMBEL rating (AMBEL (Ragweed, Common); 0.0625 kg/ha): 4.0
- AMBEL rating (AMBEL (Ragweed, Common); 0.1250 kg/ha): 9.0
- AMBEL rating (AMBEL (Ragweed, Common); 0.2500 kg/ha): 9.0
- AMBEL rating (AMBEL (Ragweed, Common); 0.5000 kg/ha): 9.0
- ZEAMX herbicidal rating (ZEAMX (Corn, Field); rate 0.0156 kg/ha): 4.0
- ZEAMX herbicidal rating (ZEAMX (Corn, Field); rate 0.0313 kg/ha): 4.0
- ZEAMX herbicidal rating (ZEAMX (Corn, Field); rate 0.0625 kg/ha): 4.5
- ZEAMX herbicidal rating (ZEAMX (Corn, Field); rate 0.1250 kg/ha): 5.0
- ABUTH rating (ABUTH (Velvetleaf); 0.0156 kg/ha): 2.0
- ABUTH rating (ABUTH (Velvetleaf); 0.0313 kg/ha): 2.0
- ABUTH rating (ABUTH (Velvetleaf); 0.0625 kg/ha): 7.0
- ABUTH rating (ABUTH (Velvetleaf); 0.1250 kg/ha): 9.0
- ABUTH rating (ABUTH (Velvetleaf); 0.2500 kg/ha): 9.0
- ABUTH rating (ABUTH (Velvetleaf); 0.5000 kg/ha): 9.0
- GLXMAW rating ([2]; 0.0156 kg/ha): 0.0
- GLXMAW rating ([2]; 0.0313 kg/ha): 0.0
- GLXMAW rating ([2]; 0.0625 kg/ha): 0.0
- GLXMAW rating ([2]; 0.1250 kg/ha): 3.0
- GLXMAW rating ([2]; 0.2500 kg/ha): 5.0
- GLXMAW rating ([2]; 0.5000 kg/ha): 7.0

SMILES: CC(C)OC(=O)CC1SC(=Nc2cc(-n3c(=O)cc(C(F)(F)F)n(C)c3=O)c(F)cc2Cl)N(C)C1=O (stereo not drawn) [Compound 89, Isopropyl 2-{{2-chloro-5-[3,6-dihydro-3-methyl-2,6-dioxo-4-(trifluoromethyl)-1(2H)-pyrimidinyl]-4-fluorophenyl}imino}-3-methyl-4-oxo-5-thiazolidineacetate]
- Herbicidal rating MOOVA (MOOVA (Monochoria); Rate 0.0313 kg/ha): 9.0
- Herbicidal rating MOOVA (MOOVA (Monochoria); Rate 0.0625 kg/ha): 9.0
- Herbicidal rating MOOVA (MOOVA (Monochoria); Rate 0.1250 kg/ha): 9.0
- Herbicidal rating MOOVA (MOOVA (Monochoria); Rate 0.2500 kg/ha): 9.0
- Herbicidal rating SAGPY ([1]; Rate 0.0313 kg/ha): 4.0
- Herbicidal rating SAGPY ([1]; Rate 0.0625 kg/ha): 5.0
- Herbicidal rating SAGPY ([1]; Rate 0.1250 kg/ha): 9.0
- Herbicidal rating SAGPY ([1]; Rate 0.2500 kg/ha): 9.0
- AMBEL rating (AMBEL (Ragweed, Common); 0.0156 kg/ha): 0.0
- AMBEL rating (AMBEL (Ragweed, Common); 0.0313 kg/ha): 0.5
- AMBEL rating (AMBEL (Ragweed, Common); 0.0625 kg/ha): 2.0
- AMBEL rating (AMBEL (Ragweed, Common); 0.1250 kg/ha): 6.5
- AMBEL rating (AMBEL (Ragweed, Common); 0.2500 kg/ha): 6.5
- AMBEL rating (AMBEL (Ragweed, Common); 0.5000 kg/ha): 9.0
- ZEAMX herbicidal rating (ZEAMX (Corn, Field); rate 0.0158 kg/ha): 7.5
- ZEAMX herbicidal rating (ZEAMX (Corn, Field); rate 0.0313 kg/ha): 7.5
- ZEAMX herbicidal rating (ZEAMX (Corn, Field); rate 0.0625 kg/ha): 8.5
- ZEAMX herbicidal rating (ZEAMX (Corn, Field); rate 0.1250 kg/ha): 9.0
- ABUTH rating (ABUTH (Velvetleaf); 0.0156 kg/ha): 1.5
- ABUTH rating (ABUTH (Velvetleaf); 0.0313 kg/ha): 6.5
- ABUTH rating (ABUTH (Velvetleaf); 0.0625 kg/ha): 9.0
- ABUTH rating (ABUTH (Velvetleaf); 0.1250 kg/ha): 9.0
- ABUTH rating (ABUTH (Velvetleaf); 0.2500 kg/ha): 9.0
- ABUTH rating (ABUTH (Velvetleaf); 0.5000 kg/ha): 9.0
- GLXMAW rating ([2]; 0.0156 kg/ha): 0.0
- GLXMAW rating ([2]; 0.0313 kg/ha): 0.0
- GLXMAW rating ([2]; 0.0625 kg/ha): 1.0
- GLXMAW rating ([2]; 0.1250 kg/ha): 2.0
- GLXMAW rating ([2]; 0.2500 kg/ha): 8.5
- GLXMAW rating ([2]; 0.5000 kg/ha): 9.0
